From PubChem BioAssay AID226 (DTP/NCI, 2004)
“And” between values parts separate entries of the source, which are not always exact repeats. Identical values can stand only once. Inconclusive results and toxic doses are left out.

Test system: B6C3F1 mice, intracerebral ependymoblastoma, median survival T/C
Test: NCI In Vivo Anticancer Drug Screen. Data for tumor model Ependymoblastoma (intracerebral) in B6C3F1 mice
Conditions: endpoint: median survival time, higher = longer survival
Description: The antitumor activity of compounds was measured in mice bearing transplantable tumors. Survival or tumor size were measured and the results are expressed as the measurement made in the treated group (T) divided by the measurement made in the vehicle treated control group (C). The tumor model used in this assay is Ependymoblastoma (intracerebral) in B6C3F1 mice

[1] = dose: 128.0 mg/kg/injection, schedule: Q01DX005 (ip), vehicle: Klucel (hydroxypropylcellulose) (HPC)
[2] = dose: 256.0 mg/kg/injection, schedule: Q01DX005 (ip), vehicle: Klucel (hydroxypropylcellulose) (HPC)
[3] = dose: 37.5 mg/kg/injection, schedule: Q01DX005 (ip), vehicle: saline with Tween-80
[4] = dose: 75.0 mg/kg/injection, schedule: Q01DX005 (ip), vehicle: saline with Tween-80
[5] = dose: 150.0 mg/kg/injection, schedule: Q01DX005 (ip), vehicle: saline with Tween-80

Question: How did the T/C (dose: 1.5 mg/kg/injection, schedule: Q01DX009 (ip), vehicle: Klucel (hydroxypropylcellulose) (HPC)) turn out when `O=NN(CCCl)C(=O)NC1CCCCC1` was run?
Answer: 110 % of control

Question: What about the T/C (dose: 2.4 mg/kg/injection, schedule: Q01DX001 (ip), vehicle: other) of the same molecule?
Answer: 98 % of control

Question: What about the T/C (dose: 4.0 mg/kg/injection, schedule: Q01DX009 (ip), vehicle: Klucel (hydroxypropylcellulose) (HPC)) of the same molecule?
Answer: 241 % of control

Question: What about the T/C (dose: 4.7 mg/kg/injection, schedule: Q01DX001 (ip), vehicle: other) of the same molecule?
Answer: 102 % of control

Question: And the T/C (dose: 5.18 mg/kg/injection, schedule: Q01DX005 (ip), vehicle: Klucel (hydroxypropylcellulose) (HPC))?
Answer: 154 % of control

Question: And the T/C (dose: 6.0 mg/kg/injection, schedule: Q01DX009 (ip), vehicle: Klucel (hydroxypropylcellulose) (HPC))?
Answer: 213 % of control

Question: What about the T/C (dose: 8.0 mg/kg/injection, schedule: Q01DX009 (ip), vehicle: Klucel (hydroxypropylcellulose) (HPC)) of the same molecule?
Answer: 241 % of control

Question: What about the T/C (dose: 8.64 mg/kg/injection, schedule: Q01DX005 (ip), vehicle: Klucel (hydroxypropylcellulose) (HPC)) of the same molecule?
Answer: 244 % of control

Question: And the T/C (dose: 9.5 mg/kg/injection, schedule: Q01DX001 (ip), vehicle: other)?
Answer: 121 % of control

Question: And the T/C (dose: 12.0 mg/kg/injection, schedule: Q01DX009 (ip), vehicle: Klucel (hydroxypropylcellulose) (HPC))?
Answer: 326 % of control

Question: What about the T/C (dose: 13.0 mg/kg/injection, schedule: Q01DX001 (ip), vehicle: Klucel (hydroxypropylcellulose) (HPC)) of the same molecule?
Answer: 181 % of control

Question: What about the T/C (dose: 14.4 mg/kg/injection, schedule: Q01DX005 (ip), vehicle: Klucel (hydroxypropylcellulose) (HPC)) of the same molecule?
Answer: 357 % of control

Question: And the T/C (dose: 16.0 mg/kg/injection, schedule: Q01DX009 (ip), vehicle: Klucel (hydroxypropylcellulose) (HPC))?
Answer: 104 % of control

Question: What about the T/C (dose: 18.9 mg/kg/injection, schedule: Q01DX001 (ip), vehicle: other) of the same molecule?
Answer: 171 % of control

Question: And the T/C (dose: 21.6 mg/kg/injection, schedule: Q01DX001 (ip), vehicle: Klucel (hydroxypropylcellulose) (HPC))?
Answer: 193 % of control

Question: What about the T/C (dose: 24.0 mg/kg/injection, schedule: Q01DX005 (ip), vehicle: Klucel (hydroxypropylcellulose) (HPC)) of the same molecule?
Answer: 357 % of control

Question: What about the T/C (dose: 24.0 mg/kg/injection, schedule: Q01DX009 (ip), vehicle: Klucel (hydroxypropylcellulose) (HPC)) of the same molecule?
Answer: 315 % of control

Question: And the T/C (dose: 32.0 mg/kg/injection, schedule: Q01DX001 (ip), vehicle: saline + alcohol)?
Answer: 233 % of control

Question: What about the T/C (dose: 36.0 mg/kg/injection, schedule: Q01DX001 (ip), vehicle: Klucel (hydroxypropylcellulose) (HPC)) of the same molecule?
Answer: 363 % of control

Question: And the T/C (dose: 37.8 mg/kg/injection, schedule: Q01DX001 (ip), vehicle: other)?
Answer: 331 % of control

Question: And the T/C (dose: 40.0 mg/kg/injection, schedule: Q01DX005 (ip), vehicle: Klucel (hydroxypropylcellulose) (HPC))?
Answer: 154 % of control

Question: What about the T/C (dose: 60.0 mg/kg/injection, schedule: Q01DX001 (ip), vehicle: Klucel (hydroxypropylcellulose) (HPC)) of the same molecule?
Answer: 363 % of control

Question: What about the T/C (dose: 64.0 mg/kg/injection, schedule: Q01DX001 (ip), vehicle: saline + alcohol) of the same molecule?
Answer: 324 % of control

Question: And the T/C (dose: 100.0 mg/kg/injection, schedule: Q01DX001 (ip), vehicle: Klucel (hydroxypropylcellulose) (HPC))?
Answer: 363 % of control

Question: What about the T/C (dose: 128.0 mg/kg/injection, schedule: Q01DX001 (ip), vehicle: saline + alcohol) of the same molecule?
Answer: 90 % of control

Question: Which T/C (dose: 1.56 mg/kg/injection, schedule: Q01DX009 (ip), vehicle: saline with Tween-80) does the source give for `O=C1NC(c2ccc(Cl)cc2)(c2ccc(Cl)cc2)C(=O)N1Cl` here?
Answer: 102 % of control

Question: What about the T/C (dose: 3.13 mg/kg/injection, schedule: Q01DX009 (ip), vehicle: saline with Tween-80) of the same molecule?
Answer: 105 % of control

Question: And the T/C (dose: 6.25 mg/kg/injection, schedule: Q01DX009 (ip), vehicle: saline with Tween-80)?
Answer: 102 % of control

Question: And the T/C (dose: 12.5 mg/kg/injection, schedule: Q01DX009 (ip), vehicle: saline with Tween-80)?
Answer: 101 % of control and 104 % of control

Question: And the T/C (dose: 25.0 mg/kg/injection, schedule: Q01DX009 (ip), vehicle: saline with Tween-80)?
Answer: 95 % of control and 99 % of control

Question: What about the T/C (dose: 50.0 mg/kg/injection, schedule: Q01DX009 (ip), vehicle: saline with Tween-80) of the same molecule?
Answer: 101 % of control

Question: `O=C1c2c(O)ccc(O)c2C(=O)c2c(NCCNCCO)ccc(NCCNCCO)c21` was tested. Which T/C (dose: 0.25 mg/kg/injection, schedule: Q01DX005 (ip), vehicle: saline with Tween-80) did it give?
Answer: 103 % of control

Question: And the T/C (dose: 0.5 mg/kg/injection, schedule: Q01DX005 (ip), vehicle: saline with Tween-80)?
Answer: 92 % of control and 98 % of control

Question: And the T/C (dose: 1.0 mg/kg/injection, schedule: Q01DX005 (ip), vehicle: saline with Tween-80)?
Answer: 103 % of control and 104 % of control

Question: And the T/C (dose: 2.0 mg/kg/injection, schedule: Q01DX005 (ip), vehicle: saline with Tween-80)?
Answer: 91 % of control and 103 % of control

Question: `Nc1nncs1` was tested. Which T/C (dose: 6.25 mg/kg/injection, schedule: Q01DX009 (ip), vehicle: saline) did it give?
Answer: 91 % of control

Question: And the T/C (dose: 12.5 mg/kg/injection, schedule: Q01DX009 (ip), vehicle: saline)?
Answer: 96 % of control

Question: What about the T/C (dose: 25.0 mg/kg/injection, schedule: Q01DX009 (ip), vehicle: saline) of the same molecule?
Answer: 102 % of control

Question: What about the T/C (dose: 50.0 mg/kg/injection, schedule: Q01DX009 (ip), vehicle: saline) of the same molecule?
Answer: 115 % of control

Question: What about the T/C (dose: 64.0 mg/kg/injection, schedule: Q01DX005 (ip), vehicle: saline with Tween-80) of the same molecule?
Answer: 110 % of control

Question: And the T/C (dose: 100.0 mg/kg/injection, schedule: Q01DX009 (ip), vehicle: saline)?
Answer: 107 % of control

Question: How did the T/C (dose: 0.12 mg/kg/injection, schedule: Q01DX005 (ip), vehicle: water) turn out when `COc1cccc2c1C(=O)c1c(O)c3c(c(O)c1C2=O)C[C@@](O)(C(C)=O)C[C@@H]3OC1CC(N)C(O)C(C)O1` (stereo partly drawn) was run?
Answer: 105 % of control

Question: What about the T/C (dose: 0.25 mg/kg/injection, schedule: Q01DX005 (ip), vehicle: water) of the same molecule?
Answer: 102 % of control

Question: What about the T/C (dose: 0.5 mg/kg/injection, schedule: Q01DX005 (ip), vehicle: water) of the same molecule?
Answer: 93 % of control and 105 % of control

Question: And the T/C (dose: 1.0 mg/kg/injection, schedule: Q01DX005 (ip), vehicle: water)?
Answer: 92 % of control and 93 % of control

Question: What about the T/C (dose: 2.0 mg/kg/injection, schedule: Q01DX005 (ip), vehicle: water) of the same molecule?
Answer: 104 % of control

Question: How did the T/C [1] turn out when `Cc1ncc(CO)c(C)c1O` was run?
Answer: 102 % of control and 108 % of control

Question: What about the T/C [2] of the same molecule?
Answer: 101 % of control and 105 % of control

Question: `CN(C)N=Nc1ccc(C(=O)O)cc1` was tested. Which T/C (dose: 32.0 mg/kg/injection, schedule: Q01DX005 (ip), vehicle: saline with Tween-80) did it give?
Answer: 122 % of control

Question: How did the T/C [3] turn out when `C=CCSc1ncnc2c1ncn2C1OC(CO)C(O)C1O` (stereo not drawn) was run?
Answer: 98 % of control

Question: And the T/C [4]?
Answer: 114 % of control

Question: And the T/C [5]?
Answer: 120 % of control

Question: What about the T/C (dose: 300.0 mg/kg/injection, schedule: Q01DX005 (ip), vehicle: saline with Tween-80) of the same molecule?
Answer: 106 % of control

Question: What does the source list for `Nc1ncnc2c1ncn2C1OC(CO)C(O)C1O` (stereo not drawn)?
Answer: T/C (dose: 64.0 mg/kg/injection, schedule: Q01DX005 (ip), vehicle: Klucel (hydroxypropylcellulose) (HPC)): 101 % of control; T/C [1]: 92 % of control; T/C [2]: 96 % of control; T/C (dose: 512.0 mg/kg/injection, schedule: Q01DX005 (ip), vehicle: Klucel (hydroxypropylcellulose) (HPC)): 94 % of control; T/C (dose: 1024.0 mg/kg/injection, schedule: Q01DX005 (ip), vehicle: Klucel (hydroxypropylcellulose) (HPC)): 98 % of control

Question: With `NC(=S)c1cn(C2OC(CO)C(O)C2O)c2ncnc(N)c12` (stereo not drawn) as the molecule, how does the T/C (dose: 1.88 mg/kg/injection, schedule: Q01DX005 (ip), vehicle: suspension in saline) read?
Answer: 94 % of control

Question: And the T/C (dose: 3.75 mg/kg/injection, schedule: Q01DX005 (ip), vehicle: suspension in saline)?
Answer: 97 % of control

Question: And the T/C (dose: 7.5 mg/kg/injection, schedule: Q01DX005 (ip), vehicle: suspension in saline)?
Answer: 108 % of control

Question: For `S=c1nc[nH]c2nc[nH]c12`, which T/C (dose: 10.0 mg/kg/injection, schedule: Q01DX001 (ip), vehicle: Klucel (hydroxypropylcellulose) (HPC)) is on record?
Answer: 92 % of control and 99 % of control and 101 % of control

Question: What about the T/C (dose: 20.0 mg/kg/injection, schedule: Q01DX001 (ip), vehicle: Klucel (hydroxypropylcellulose) (HPC)) of the same molecule?
Answer: 98 % of control and 100 % of control and 107 % of control

Question: What about the T/C (dose: 40.0 mg/kg/injection, schedule: Q01DX001 (ip), vehicle: Klucel (hydroxypropylcellulose) (HPC)) of the same molecule?
Answer: 100 % of control and 103 % of control (2×)

Question: And the T/C (dose: 80.0 mg/kg/injection, schedule: Q01DX001 (ip), vehicle: Klucel (hydroxypropylcellulose) (HPC))?
Answer: 95 % of control and 103 % of control and 107 % of control

Question: And the T/C (dose: 160.0 mg/kg/injection, schedule: Q01DX001 (ip), vehicle: Klucel (hydroxypropylcellulose) (HPC))?
Answer: 100 % of control and 101 % of control and 116 % of control

Question: What does the source list for `OCC1OC(n2cnc3c(SCc4ccccc4)ncnc32)C(O)C1O` (stereo not drawn)?
Answer: T/C [3]: 97 % of control; T/C [4]: 106 % of control; T/C [5]: 120 % of control

Question: With `CC(=O)O[C@H]1C(=O)[C@@]2(C)[C@H]([C@H](OC(=O)c3ccccc3)[C@]3(O)C[C@H](OC(=O)[C@H](O)[C@@H](NC(=O)c4ccccc4)c4ccccc4)C(C)=C1C3(C)C)[C@]1(OC(C)=O)CO[C@@H]1C[C@@H]2O` as the molecule, how does the T/C (dose: 2.5 mg/kg/injection, schedule: Q01DX005 (ip), vehicle: Klucel (hydroxypropylcellulose) (HPC)) read?
Answer: 107 % of control

Question: What about the T/C (dose: 5.0 mg/kg/injection, schedule: Q01DX005 (ip), vehicle: Klucel (hydroxypropylcellulose) (HPC)) of the same molecule?
Answer: 101 % of control

Question: What about the T/C (dose: 10.0 mg/kg/injection, schedule: Q01DX005 (ip), vehicle: Klucel (hydroxypropylcellulose) (HPC)) of the same molecule?
Answer: 91 % of control and 106 % of control

Question: And the T/C (dose: 20.0 mg/kg/injection, schedule: Q01DX005 (ip), vehicle: Klucel (hydroxypropylcellulose) (HPC))?
Answer: 91 % of control
